# Tests used:
# [1] = test system: Zymoseptoria tritici; test: Test E: wheat leaf blotch, preventive spray on wheat seedlings; details: 100 = 100% disease control; for Test E rating (% disease control): 10 ppm, wheat leaf blotch, 0 = no control
# [2] = test system: Erysiphe graminis f sp. tritici; test: Test G: wheat powdery mildew, preventive spray on wheat seedlings; details: 100 = 100% disease control; for Test G rating (% disease control): 10 ppm, wheat powdery mildew, 0 = no control
# [3] = test system: Botrytis cinerea; test: Test B: gray mold, preventive spray on tomato seedlings; details: 100 = 100% disease control; for Test B rating (% disease control): 10 ppm, gray mold on tomato, 0 = no control
# [4] = test system: Stagonospora nodorum; test: Test D: wheat glume blotch, preventive spray on wheat seedlings; details: 100 = 100% disease control; for Test D rating (% disease control): 10 ppm, wheat glume blotch, 0 = no control
# [5] = test system: Puccinia recondita f sp. tritici; test: Test F: wheat leaf rust, preventive spray on wheat seedlings; details: 100 = 100% disease control; for Test F rating (% disease control): 10 ppm, wheat leaf rust, 0 = no control
# [6] = 10 ppm test solution, 0 = no control relative to controls
Compound,Test E rating (% disease control) [1],Test G rating (% disease control) [2],Test B rating (% disease control) [3],Test D rating (% disease control) [4],Test F rating (% disease control) [5],"Test E disease control rating [1, 6]","Test G disease control rating [2, 6]","Test B disease control rating [3, 6]","Test D disease control rating [4, 6]","Test F disease control rating [5, 6]"
"OC(Cn1cncn1)(C1=NOC(c2ccc(-n3ccc(C(F)(F)F)n3)cc2)C1)c1ccc(Cl)cc1 (single isomer, unassigned) [Compound 149]",38%,76%,0%,0%,36%,–,–,–,–,–
"OC(Cn1cncn1)(C1=NOC(c2cccc(Oc3ccccc3)c2)C1)c1ccc(Cl)cc1 (single isomer, unassigned) [Compound 176]",2%,100%,0%,82%,100%,–,–,–,–,–
"CS(=O)(=O)c1ccc(C2CC(C(O)(Cn3cncn3)c3ccc(Cl)cc3)=NO2)cc1 (single isomer, unassigned) [Compound 113]",9%,98%,0%,0%,100%,–,–,–,–,–
"CCCCC(O)(Cn1cncn1)C1=NOC(c2ccc(Cl)cc2)C1 (single isomer, unassigned) [Compound 156]",19%,100%,0%,98%,100%,–,–,–,–,–
"OC(Cn1cncn1)(C1=NOC(c2ccc(Cl)cc2)C1)c1ccccc1F (single isomer, unassigned) [Compound 135]",1%,81%,0%,69%,98%,–,–,–,–,–
"CC(C)(C)CC(O)(Cn1cncn1)C1=NOC(c2ccc(Cl)cc2)C1 (single isomer, unassigned) [Compound 138]",0%,100%,17%,100%,100%,–,–,–,–,–
"OC(Cn1cncn1)(C1=NOC(c2ccc(C(F)(F)F)cc2)C1)c1ccc(Cl)cc1 (single isomer, unassigned) [Compound 147]",17%,90%,0%,73%,100%,–,–,–,–,–
"OC(Cn1cncn1)(C1=NOC(Cn2ccc(C(F)(F)F)n2)C1)c1ccc(Cl)cc1 (single isomer, unassigned) [Compound 194]",0%,99%,0%,11%,100%,–,–,–,–,–
"CCC(C)(C)C(O)(Cn1cncn1)C1=NOC(Cc2ccc(C(F)(F)F)cc2)C1 (single isomer, unassigned) [Compound 19]",10%,100%,0%,89%,100%,–,–,–,–,–
"OC(Cn1cncn1)(C1=NOC(COc2ccc(Cl)nc2)C1)c1ccc(Cl)cc1 (single isomer, unassigned) [Compound 101]",0%,99%,0%,0%,100%,–,–,–,–,–
"CC(C)(C)CC(O)(Cn1cncn1)C1=NOC(Cc2ccc(C(F)(F)F)cc2)C1 (single isomer, unassigned) [Compound 227]",–,–,–,–,–,29%,100%,0%,73%,100%
"CCC(C)(C)C(O)(Cn1cncn1)C1=NOC(Cc2ccc(C(F)(F)F)cc2)C1 (single isomer, unassigned) [Compound 20]",98%,99%,0%,65%,100%,–,–,–,–,–

# — patent US20160242416A1, “FUNGICIDAL ISOXAZOLINE CARBINOLS” (E I DU PONT DE NEMOURS AND COMPANY, priority 2015, published 2016)
